What was measured:
A673 cells = assay: Cell viability and proliferation, A673 cells (crystal violet); format: cell-based; settings: cell proliferation IC50 in NHDF cells over A673 cells, 72 h
Procedure: Small molecule splicing modulators were tested in a dose-response assay using A673 cells and NHDF cells.
A673 cells or NHDF cells were first plated in 96-well plastic tissue culture plates (10,000 cells per well). The cells were treated with vehicle alone (DMSO), or increasing concentrations of SMSM compounds for 72 h. Following treatment, cell proliferation was determined using a crystal violet assay. The relative cell proliferation at each concentration was determined.

A375 xenografts = A375 xenografts in nude mice, tumor growth inhibition; format: in vivo
Procedure: (§1) Studies were performed to assess the effects of in vivo SMSM treatment on glioblastoma, breast, pancreatic, prostate, melanoma, lymphoma and Ewing sarcoma tumors. Studies were also performed to assess the effects of in vivo SMSM treatment on mRNA levels. Immunocompromised nude mice with pre-existing glioblastoma, breast, pancreatic, prostate, melanoma, lymphoma and Ewing sarcoma xenografts were treated with vehicle or SMSMs. Tumor tissues from subcutaneous xenografts were broken into a powder using a BioPulverizer (Biospec Products, Inc.). After SMSM treatment, mRNA was isolated from the xenografts and was analyzed by qRT-PCR.
(§2) Tumor size was measured 2 times per week in two dimensions using a caliper. Studies were terminated when the tumor size in the vehicle treated group reached 2,000 mm^3. Each mouse was bled at 2 hrs after the last dose and at least 50 μl of plasma was collected from each mouse. All of the collected plasma samples and retainer dosing solutions for each dose level were used for bioanalytical measurements. All tumors were also collected and weighed. One necrosis-free tumor fragment of approximately 50 mg was taken from each tumor and flash-frozen for RNA isolation. The remaining tumor was flash frozen for PK analysis.
The effects of in vivo SMSM treatments on pre-existing subcutaneous glioblastoma, breast, pancreatic, prostate, melanoma, lymphoma and Ewing sarcoma xenografts were assessed. For these in vivo experiments, 1×10^6Raji, A375, A673, MDA-MB-231, BxPC-3, PC-3 or U87 (cells re-suspended in 100 μl PBS were subcutaneously injected into the flanks of nude mice. When the tumor reached approximately 100 mm^3 (volume=(¾)(π)(length/2)(width/2)^2), the treatments indicated in the tables below were initiated.

A673 xenografts = A673 xenografts in nude mice, tumor growth inhibition; format: in vivo; settings: A673 xenograft (FIGS. 16A-C), 1 mg/kg BID
Procedure: Dose range and time course studies comparing anti-neoplastic effects of SMSM−167 and SMSM−151 against vehicle were conducted.
Female NCrNu mice were used. Age range of enrolment was 7-10 weeks. A total of 75 animals were for the studies.
The A673 tumor cell line was maintained in vitro as a monolayer culture. […] The cells growing in an exponential growth phase were harvested and counted for tumor inoculation.
Each mouse were inoculated into a right flank with the single cell suspension of 95% viable tumor cells (5×10^6 cells/mouse) in serum-free RPMI 1640 Media for tumor development. Treatments were administered when mean tumor size reached approximately 75 mm^3.
Before commencement of treatment, all animals were weighed and assigned to treatment groups using a randomization procedure. Mice were randomized into groups based upon their tumor sizes to ensure that each group had approximately the same mean tumor size and range of tumor size.
After inoculation, the animals were checked daily for morbidity and mortality. At the time of routine monitoring, the animals were checked for any effects of tumor growth on normal behavior such as mobility, food and water consumption, body weight gain/loss, eye/hair matting and any other abnormal effects. Deaths and observed clinical signs were recorded.
Body weight were measured prior to tumor inoculation and prior to the treatment administration and then daily. Tumor size were measured 2-3 times per week in two dimensions using a caliper, and the volume were expressed in mm^3 using the formula: V=0.5×a×b^2 where a and b are the long and short diameters of the tumor, respectively.
Studies were terminated when the tumor size in the vehicle treated group reached 2,000 mm^3. Each mouse was bled at 2 hrs after the last dose and at least 50 μl of plasma were collected from each mouse. All of the collected plasma samples and retainer dosing solutions for each dose level were used for bioanalytical measurements. All tumors were also collected and weighed. One necrosis-free tumor fragment of approximately 50 mg was taken from each tumor and flash-frozen for RNA isolation. The remaining tumor was flash frozen for PK analysis.
as §1, §2
The effects of in vivo SMSM treatments on pre-existing subcutaneous glioblastoma, breast, pancreatic, prostate, melanoma, lymphoma and Ewing sarcoma xenografts were assessed. For these in vivo experiments, 1×10^6Raji, A375, A673, MDA-MB-231, BxPC-3, PC-3 or U87 (cells re-suspended in 100 μl PBS were subcutaneously injected into the flanks of nude mice. When the tumor reached approximately 100 mm^3 (volume=(¾)(π)(length/2)(width/2)^2), the treatments indicated in the tables below were initiated. […]

O=C(/C=C/c1cccc(S(=O)(=O)Nc2ccccc2)c1)NO [Belinostat]
Ratio NHDF/A673 IC50 (A673 cells): ≤10

Nc1ccccc1NC(=O)c1ccc(CNc2nccc(-c3cccnc3)n2)cc1 [Mocetinostat]
Ratio NHDF/A673 IC50 (A673 cells): ≤10

Cc1[nH]c2ccccc2c1CCNCc1ccc(/C=C/C(=O)NO)cc1 [Panobinostat]
Ratio NHDF/A673 IC50 (A673 cells): ≤10

CC(/C=C/C(=O)NO)=C\[C@@H](C)C(=O)c1ccc(N(C)C)cc1 [Trichostatin A]
Ratio NHDF/A673 IC50 (A673 cells): ≤10

CCCS(=O)(=O)Nc1ccc(F)c(C(=O)c2c[nH]c3ncc(-c4ccc(Cl)cc4)cc23)c1F [Vemurafenib, vemurafenib, reference compound]
Tumor Growth Inhibition (TGI) (%) (A375 xenografts; A375 xenograft (FIGS. 17A-B), 50 mg/kg p.o. BID, D4): 9.47% | Tumor Growth Inhibition (TGI) (%) (A375 xenografts; A375 xenograft (FIGS. 17A-B), 50 mg/kg p.o. BID, D6): 9.98% | Tumor Growth Inhibition (TGI) (%) (A375 xenografts; A375 xenograft (FIGS. 17A-B), 50 mg/kg p.o. BID, D10): 24.32% | Tumor Growth Inhibition (TGI) (%) (A375 xenografts; A375 xenograft (FIGS. 17A-B), 50 mg/kg p.o. BID, D13): 50.53% | Tumor Growth Inhibition (TGI) (%) (A375 xenografts; A375 xenograft (FIGS. 17A-B), 50 mg/kg p.o. BID, D17): 69.66% | Tumor Growth Inhibition (TGI) (%) (A375 xenografts; A375 xenograft (FIGS. 17A-B), 50 mg/kg p.o. BID, D21): 82.03% | Tumor Growth Inhibition (TGI) (%) (A375 xenografts; A-375 xenograft (FIGS. 21A-B), 50 mg/kg p.o. BID *21 days, D4): 111.22% | Tumor Growth Inhibition (TGI) (%) (A375 xenografts; A-375 xenograft (FIGS. 21A-B), 50 mg/kg p.o. BID *21 days, D7): 112.77% | Tumor Growth Inhibition (TGI) (%) (A375 xenografts; A-375 xenograft (FIGS. 21A-B), 50 mg/kg p.o. BID *21 days, D11): 114.44% | Tumor Growth Inhibition (TGI) (%) (A375 xenografts; A-375 xenograft (FIGS. 21A-B), 50 mg/kg p.o. BID *21 days, D14): 109.55% | Tumor Growth Inhibition (TGI) (%) (A375 xenografts; A-375 xenograft (FIGS. 21A-B), 50 mg/kg p.o. BID *21 days, D18): 107.72% | Tumor Growth Inhibition (TGI) (%) (A375 xenografts; A-375 xenograft (FIGS. 21A-B), 50 mg/kg p.o. BID *21 days, D21): 106.56%

CN(c1ccc(-c2ccc(-c3cn[nH]c3)cc2O)nn1)[C@@H]1C[C@H]2CCC[C@@H](C1)N2 [compound 160, 2-(6-(((1R,3s,5S)-9-azabicyclo[3.3.1]nonan-3-yl)(methyl)amino)pyridazin-3-yl)-5-(1H-pyrazol-4-yl)phenol]
Ratio NHDF/A673 IC50 (A673 cells): >225 | Tumor Growth Inhibition (TGI) (%) (A673 xenografts; Day 3): −0.94% | Tumor Growth Inhibition (TGI) (%) (A673 xenografts; Day 6): 25.67% | Tumor Growth Inhibition (TGI) (%) (A673 xenografts; Day 10): 25.67% | Tumor Growth Inhibition (TGI) (%) (A673 xenografts; Day 13): 42.90% | Tumor Growth Inhibition (TGI) (%) (A375 xenografts; A375 xenograft (FIGS. 17A-B), 3 mg/kg ip. BID, D4): 33.09% | Tumor Growth Inhibition (TGI) (%) (A375 xenografts; A375 xenograft (FIGS. 17A-B), 3 mg/kg ip. BID, D6): 92.99% | Tumor Growth Inhibition (TGI) (%) (A375 xenografts; A375 xenograft (FIGS. 17A-B), 3 mg/kg ip. BID, D10): 109.59% | Tumor Growth Inhibition (TGI) (%) (A375 xenografts; A375 xenograft (FIGS. 17A-B), 3 mg/kg ip. BID, D13): 105.98% | Tumor Growth Inhibition (TGI) (%) (A375 xenografts; A375 xenograft (FIGS. 17A-B), 3 mg/kg ip. BID, D17): 99.59% | Tumor Growth Inhibition (TGI) (%) (A375 xenografts; A375 xenograft (FIGS. 17A-B), 3 mg/kg ip. BID, D21): 94.68% | Tumor Growth Inhibition (TGI) (%) (A375 xenografts; A375 xenograft (FIGS. 17A-B), 3 mg/kg ip. QD, D4): 3.40% | Tumor Growth Inhibition (TGI) (%) (A375 xenografts; A375 xenograft (FIGS. 17A-B), 3 mg/kg ip. QD, D6): 47.56% | Tumor Growth Inhibition (TGI) (%) (A375 xenografts; A375 xenograft (FIGS. 17A-B), 3 mg/kg ip. QD, D10): 44.13% | Tumor Growth Inhibition (TGI) (%) (A375 xenografts; A375 xenograft (FIGS. 17A-B), 3 mg/kg ip. QD, D13): 40.08% | Tumor Growth Inhibition (TGI) (%) (A375 xenografts; A375 xenograft (FIGS. 17A-B), 3 mg/kg ip. QD, D17): 45.12% | Tumor Growth Inhibition (TGI) (%) (A375 xenografts; A375 xenograft (FIGS. 17A-B), 3 mg/kg ip. QD, D21): 53.98% | Tumor Growth Inhibition (TGI) (%) (A375 xenografts; A375 xenograft (FIGS. 17A-B), 10 mg/kg ip. QD*5day, D4): 72.84% | Tumor Growth Inhibition (TGI) (%) (A375 xenografts; A375 xenograft (FIGS. 17A-B), 10 mg/kg ip. QD*5day, D6): 118.42% | Tumor Growth Inhibition (TGI) (%) (A375 xenografts; A375 xenograft (FIGS. 17A-B), 10 mg/kg ip. QD*5day, D10): 112.78% | Tumor Growth Inhibition (TGI) (%) (A375 xenografts; A375 xenograft (FIGS. 17A-B), 10 mg/kg ip. QD*5day, D13): 103.12% | Tumor Growth Inhibition (TGI) (%) (A375 xenografts; A375 xenograft (FIGS. 17A-B), 10 mg/kg ip. QD*5day, D17): 97.84% | Tumor Growth Inhibition (TGI) (%) (A375 xenografts; A375 xenograft (FIGS. 17A-B), 10 mg/kg ip. QD*5day, D21): 95.59% | Tumor Growth Inhibition (TGI) (%) (A375 xenografts; A-375 xenograft (FIGS. 21A-B), 1.5 mg/kg i.p. BID *21 days, D4): 3.60% | Tumor Growth Inhibition (TGI) (%) (A375 xenografts; A-375 xenograft (FIGS. 21A-B), 1.5 mg/kg i.p. BID *21 days, D7): 18.11% | Tumor Growth Inhibition (TGI) (%) (A375 xenografts; A-375 xenograft (FIGS. 21A-B), 1.5 mg/kg i.p. BID *21 days, D11): 30.05% | Tumor Growth Inhibition (TGI) (%) (A375 xenografts; A-375 xenograft (FIGS. 21A-B), 1.5 mg/kg i.p. BID *21 days, D14): 30.28% | Tumor Growth Inhibition (TGI) (%) (A375 xenografts; A-375 xenograft (FIGS. 21A-B), 1.5 mg/kg i.p. BID *21 days, D18): 42.80% | Tumor Growth Inhibition (TGI) (%) (A375 xenografts; A-375 xenograft (FIGS. 21A-B), 1.5 mg/kg i.p. BID *21 days, D21): 37.88% | Tumor Growth Inhibition (TGI) (%) (A375 xenografts; A-375 xenograft (FIGS. 21A-B), 3 mg/kg i.p. BID *21 days, D4): 38.68% | Tumor Growth Inhibition (TGI) (%) (A375 xenografts; A-375 xenograft (FIGS. 21A-B), 3 mg/kg i.p. BID *21 days, D7): 46.64% | Tumor Growth Inhibition (TGI) (%) (A375 xenografts; A-375 xenograft (FIGS. 21A-B), 3 mg/kg i.p. BID *21 days, D11): 94.46% | Tumor Growth Inhibition (TGI) (%) (A375 xenografts; A-375 xenograft (FIGS. 21A-B), 3 mg/kg i.p. BID *21 days, D14): 89.78% | Tumor Growth Inhibition (TGI) (%) (A375 xenografts; A-375 xenograft (FIGS. 21A-B), 3 mg/kg i.p. BID *21 days, D18): 81.80% | Tumor Growth Inhibition (TGI) (%) (A375 xenografts; A-375 xenograft (FIGS. 21A-B), 3 mg/kg i.p. BID *21 days, D21): 71.33%

CN(c1ccc(-c2ccc(-c3ccn(C)c(=O)c3)cc2O)nn1)[C@H]1C[C@]2(C)CC[C@](C)(C1)N2 [compound 168, 4-(4-(6-(((1R,3s,5S)-1,5-dimethyl-8-azabicyclo[3.2.1]octan-3-yl)(methyl)amino)pyridazin-3-yl)-3-hydroxyphenyl)-1-methylpyridin-2(1H)-one]
Ratio NHDF/A673 IC50 (A673 cells): >500

Source: patent US11326165B1, “Methods and compositions for modulating splicing” (SKYHAWK THERAPEUTICS, INC., priority 2017, dated 2022)
